The values that follow come from patent publication US20240190887A1, “COMPOUND USED AS SHP2 INHIBITOR AND USE THEREOF” (TYK MEDICINES, INC., priority 2021, published 2024).

The target of one experiment is T1, full-length SHP2 protein (Homo sapiens, UniProt Q06124).
T1 construct: Purified full-length SHP2 protein (Kamed Bio-Tianjin); purchased Kamed Bio-Tianjin
T1 sequence (Q06124 1-593): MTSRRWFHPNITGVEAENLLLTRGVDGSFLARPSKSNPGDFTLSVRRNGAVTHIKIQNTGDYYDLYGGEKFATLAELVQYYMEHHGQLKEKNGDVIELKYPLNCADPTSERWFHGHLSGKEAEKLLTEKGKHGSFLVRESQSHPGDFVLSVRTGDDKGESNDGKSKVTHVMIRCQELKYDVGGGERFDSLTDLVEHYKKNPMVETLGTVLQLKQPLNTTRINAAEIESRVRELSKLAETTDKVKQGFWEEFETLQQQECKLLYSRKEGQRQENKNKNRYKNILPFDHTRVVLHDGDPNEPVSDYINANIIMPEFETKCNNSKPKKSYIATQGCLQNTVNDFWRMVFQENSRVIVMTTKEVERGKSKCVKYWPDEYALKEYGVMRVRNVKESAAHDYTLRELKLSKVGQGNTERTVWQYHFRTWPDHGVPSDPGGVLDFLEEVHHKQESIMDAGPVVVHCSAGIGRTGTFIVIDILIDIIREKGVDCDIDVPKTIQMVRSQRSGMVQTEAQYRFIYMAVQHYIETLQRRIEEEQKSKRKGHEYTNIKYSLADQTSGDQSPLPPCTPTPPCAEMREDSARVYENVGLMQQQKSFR
Kind of experiment: In vitro SHP2 enzyme activity inhibition (DiFMUP substrate, SHP2 activating peptide). It counts as biochemical. As to conditions: full-length SHP2 protein with activating peptide, 8 concentrations, read-out: IC50 of compounds inhibiting SHP2 enzyme activity. The procedure: • a) Purified full-length SHP2 protein (Kamed Bio-Tianjin) • b) SHP2 activating peptide (BPS Bioscience). • c) DiFMUP. • d) Reaction buffer (120 mM HEPES pH 7.2, 200 mM NaCl, 1 mM EDTA, 0.002% Brij35), added with 0.04% BSA after autoclave, stored at 4° C.; diluted to 1× before use, and added with 2 mM DTT.
• a) The 384-well plates were filled with 10 uL solution of compound to be tested (No. 2), 3-fold gradient dilution, totaling 8 concentrations; • b) The sample wells to be tested were added with 5 uL of […] activating peptide (No. 4, 2 uM) and 5 uL of 4×full-length SHP2 protein (0.88 nM), control wells were free of inhibitor, and blank wells were free of SHP2 activating peptide and inhibitor; • c) 384-well plate was sealed, mixed well and incubated at room temperature for 1 hr; • d) After adding 5 uL 5×DiFMUP (125 uM), 384-well plate was sealed, mixed well and incubated at room temperature for 1 hr, and then detected by En Vision;
% Inhibition=[1−(RFUsample−RFUblank)/(RFUtotal−RFUblank)]×100
Non-linear regression analysis was performed using Graphpad 8.0, and the IC50 values for each compound were obtained by fitting a curve of enzyme activity with compound concentration through the equation Y=Bottom+(Top−Bottom)/(1+10^((LogIC50−X)*Hill Slope)).

For another experiment, the system named is MV4-11 cells. Kind of experiment: Compound activity in MV4-11 cells (72 hr, cell viability by CTG method). Type of experiment: cell-based. As to conditions: Homo sapiens, 72 hr incubation. As for the experimental part:
MV4-11 cells in logarithmic growth phase were taken, prepared into cell suspension, inoculated in 96-well plates at 160 uL/well with an inoculation density of 5000 cells/well, and cultured overnight in a 37° C. cell culture incubator. A 5× solution of the compound to be tested was prepared with 4-fold gradient dilution, and a total of 8 concentrations with double duplicate wells. The solution of the compound to be tested was added into 96-well plate at 40 uL/well, and the blank and control wells were added with corresponding volume of solvent, shaken and mixed well, and then incubated in 37° C. cell incubator for 72 hr, and the cell viability was detected by CTG method.
Equation (Sample−blank)/(control−blank)*100% was used to convert raw data to inhibition rate, and the IC50 value could be obtained by curve fitting with four parameters (obtained with “log(inhibitor) vs. response—Variable slope” model in GraphPad Prism), and the results are shown in Table III. (In the table below, the following designations are used: <100 nM=A; 100-500 nM=B; >500 nM=C).

By IC50 is commonly meant the concentration at which inhibition is half-maximal. Take `C[C@@H]1OCC2(CCN(c3nc4cnn(-c5ccc6cn(C)nc6c5)c4nc3CO)CC2)[C@@H]1N` [Compound C14]: the IC50 on full-length SHP2 protein was below 50 nM.

On to `Cc1nc(N2CCC3(CC2)CO[C@@H](C)[C@H]3N)c(CO)nc1Sc1ccnc(N)c1Cl` [RMC-4630, reference compound], for which the values for the half-inhibitory concentration (IC50) at full-length SHP2 protein and in the experiment on MV4-11 cells were below 50 nM and below 100 nM, respectively.

Regarding `C[C@@H]1OCC2(CCN(c3nc4cnn(-c5ccc6ccn(C)c6c5)c4nc3CO)CC2)[C@@H]1N` [Compound C12], the half-inhibitory concentration (IC50) was below 50 nM at full-length SHP2 protein and below 100 nM in the experiment on MV4-11 cells.

With `C[C@@H]1OCC2(CCN(c3nc4cnn(-c5ccc6cn[nH]c6c5)c4nc3CO)CC2)[C@@H]1N` [Compound C15], the figures for the IC50 on full-length SHP2 protein and in the experiment with MV4-11 cells were below 50 nM and below 100 nM, respectively.

Take `C[C@@H]1OCC2(CCN(c3nc4cnn(-c5cccc6c5CCN6C)c4nc3CO)CC2)[C@@H]1N` [Compound C13]: the 50% inhibitory concentration (IC50) on full-length SHP2 protein is below 50 nM.

`C[C@@H]1OCC2(CCN(c3nc4cnn(-c5ccc6nnn(C)c6c5)c4nc3CO)CC2)[C@@H]1N` [Compound C17]: the IC50 at full-length SHP2 protein is below 50 nM; with MV4-11 cells it was below 100 nM.

For the compound `C[C@@H]1OCC2(CCN(c3nc4cnn(-c5ccnc(N)c5Cl)c4nc3CO)CC2)[C@@H]1N` [WO2021148010A1 Example 5, reference compound], the results for the IC50 at full-length SHP2 protein and with MV4-11 cells were 50 to 500 nM and 100 to 500 nM, respectively.

As for `C[C@@H]1OCC2(CCN(c3nc4cnn(-c5ccc6cnn(C)c6c5)c4nc3C(F)F)CC2)[C@@H]1N` [Compound C16], the IC50 on full-length SHP2 protein is below 50 nM.

On to `CCn1ncc2ccc(-n3ncc4nc(N5CCC6(CC5)CO[C@@H](C)[C@H]6N)c(CO)nc43)cc21` [Compound C18], for which the concentration for half-maximal inhibition (IC50) at full-length SHP2 protein is below 50 nM.

In the case of `C[C@@H]1OCC2(CCN(c3nc4cnn(-c5cccc6c5ccn6C)c4nc3CO)CC2)[C@@H]1N` [Compound C5], the 50% inhibitory concentration (IC50) on full-length SHP2 protein was below 50 nM; with MV4-11 cells, below 100 nM.

As to `C[C@@H]1OCC2(CCN(c3nc4cnn(-c5ccc6cnn(C)c6c5)c4nc3CO)CC2)[C@@H]1N` [Compound C4], the IC50 was below 50 nM at full-length SHP2 protein and below 100 nM in the experiment with MV4-11 cells.

Turning to `C[C@@H]1OCC2(CCN(c3nc4cnn(-c5ccc6c(cnn6C)c5)c4nc3CO)CC2)[C@@H]1N` [Compound C11], the 50% inhibitory concentration (IC50) at full-length SHP2 protein is below 50 nM; in the experiment with MV4-11 cells it was below 100 nM.

Turning to `C[C@@H]1OCC2(CCN(c3nc4cnn(-c5ccc6nn(C)cc6c5Cl)c4nc3CO)CC2)[C@@H]1N` [Compound C6], the half-maximal inhibitory concentration (IC50) is below 50 nM on full-length SHP2 protein and below 100 nM with MV4-11 cells.
